This is an account of results in patent US11434205B2, “Substituted imidazole carboxylate derivatives and the use thereof” (priority 2018, dated 2022).

Where two headings read alike, the source gives them in different places.

The subject of series [1] is secretion of corticosterone, H295R cell line. Description: cells. The class given is cell-based. Conditions: for EC50: read-out: EC50 (Corticosterone). As for the experimental part: (§1) The Effects of the Compounds on Adrenocortical Function In Vitro Test
(§2) Then secretion of the cortisol and corticosterone in the supernatant, was measured using HPLC-MS/MS method to determine whether the compounds of the present invention had adrenotoxic potential.

Series [2] relates to secretion of cortisol, H295R cell line. In words: cells. It is filed as cell-based. The conditions noted are these: for EC50: read-out: EC50 (Cortisol). As for the experimental part:
as §1, §2

For series [3], the target named is T1, 11-β-hydroxylase (Rattus norvegicus, UniProt P15393).
T1 sequence (P15393 25-499): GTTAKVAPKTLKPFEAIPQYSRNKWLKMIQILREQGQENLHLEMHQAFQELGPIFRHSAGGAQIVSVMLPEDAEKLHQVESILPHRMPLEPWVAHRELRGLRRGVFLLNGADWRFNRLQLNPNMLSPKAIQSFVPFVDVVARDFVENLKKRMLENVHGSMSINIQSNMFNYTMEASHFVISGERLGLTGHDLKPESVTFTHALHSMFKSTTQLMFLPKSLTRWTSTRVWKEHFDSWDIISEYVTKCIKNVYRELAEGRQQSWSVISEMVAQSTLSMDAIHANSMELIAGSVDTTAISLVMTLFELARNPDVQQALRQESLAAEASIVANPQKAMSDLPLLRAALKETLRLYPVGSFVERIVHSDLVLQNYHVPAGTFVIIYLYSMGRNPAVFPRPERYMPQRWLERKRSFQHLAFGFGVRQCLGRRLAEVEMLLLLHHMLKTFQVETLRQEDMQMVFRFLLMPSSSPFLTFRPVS
Conditions: compared with etomidate; cited from earlier work.

Series [4] deals with rats. Description: Loss of righting reflexes (LORR) assay in rats, ED50 by up and down method. The class given is in vivo, rat. Conditions: Rattus norvegicus, tail vein, class symbols. Put shortly:
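ED50 obtained by up-and-down dosing, with righting-reflex loss over 30 s counted as general anesthesia. Compounds injected into the tail vein (0.1 mL/s) of male Sprague-Dawley rats weighing 250-300 g.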

The test system of series [5] is rats. As for the experimental part:
Adult male Sprague-Dawley rats (250-300 g) were selected for the experiment. […] The anesthesia effects of the compounds were assessed in rats using a LORR assay and a period >30 s was considered as an indicator of general anesthesia. Then the up and down method was used to determine 50% effective dose (ED50). The drugs were administered through the tail vein of rats in a volume of 0.6 mL and at a rate of 0.1 mL/s.

The test system of series [6] is rats. Description: Pharmacological characteristics at equivalent doses (2×ED50) in rats. Conditions: 2×ED50, tail vein. The method in brief: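 Anesthesia onset, recorded as time of LORR, was measured after a 2×ED50 tail-vein injection (0.6 mL, 0.1 mL/s). Animals were male Sprague-Dawley rats of 250-300 g, n=8.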
The subject of series [7] is rats. The class given is in vivo, rat. Conditions: rats of the MAP/HR figures, 2×ED50, tail vein; same value in min. The method in brief:
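Hemodynamic stability judged from mean arterial pressure and heart rate, recorded at 15 s intervals over 30 min pre- and post-dose. Dosing was through a tail-vein indwelling catheter in rats carrying implanted aortic/ventricular catheters and ECG wires, operated ≥1 week earlier.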

In series [8] the test system is rats. Conditions: continuous tail vein infusion at 2×MIR, LORR maintained 1 hour, Table D4. Here is the method:
Pharmacological Effects of the Compounds on Continuous Infusion in Rats
Adult male Sprague-Dawley rats with body weight ranging from 250 to 300 gm were selected for continuous infusion test. […] Time to recovery of righting reflex from stopping infusion, and time to fully awake from stopping infusion were recorded.

The test system of series [9] is rats. It is filed as in vivo, rat. The conditions noted are these: rats of the MAP/HR figures, 2×ED50, tail vein.
Where [10] appears, read: H295R cell line, 0.1-10000 nM, HPLC-MS/MS, Table D3.
Setting [11] is: H295R cell line, 0.1-10000 nM, HPLC-MS/MS, Table E3.
Setting [12] is: H295R, 0.1-10000 nM, HPLC-MS/MS.

Take `C[C@H](c1ccccc1)n1cncc1C(=O)O` [Etomidate acid, etomidate acid, reference compound]: the “Corticosterone as an indicator to determine the presence of inhibition” value in series [1] (setting [10]) stood at 0; in [1] (setting [11]), 0; in series [1] (H295R, Table A3) it was 0; in [1] (H295R, Table B3) it was 0; in [1] (H295R, Table C3), 0. The EC50 in series [1] (setting [10]), in [1] (setting [11]), in series [1] (setting [12]), in series [2] (setting [10]), in series [2] (setting [11]) and in series [2] (setting [12]) was more than 10 µM in each case. Further, the “Cortisol as an indicator to determine the presence of inhibition” value in [2] (setting [10]) is on record as 0; in series [2] (setting [11]), 0; in series [2] (H295R, Table A3), 0; in series [2] (H295R, Table B3), 0; in [2] (H295R, Table C3), 0. In series [3], the “inhibitory effect on 11-β-hydroxylase” value was “little inhibitory effect”.

The compound `CC#CCOC(=O)c1cncn1[C@H](C)c1ccccc1` [Compound D18] yielded an ED50 in series [4] of 0.1 to 0.5 mg/kg. In [5], the Approximate therapeutic index is more than 12 and the “Minimal lethal dose” value is reported as more than 3 mg/kg. Also, in series [6], the “Adverse reactions: Convulsions (incidence)” value was “Convulsions (1/8), Red” and the “Righting reflex duration” value came to 1.88 ± 0.95 min. Moreover, the “Adverse reactions: Red urine (incidence)” value in [6] (DMSO solution (DMSO alone 10/10)) is “urine (8/8)”. For the same compound, the “Onset time” value in [6] (time of LORR) came to 0.22 ± 0.11 min. In addition, the “Corticosterone as an indicator to determine the presence of inhibition” value in series [1] (setting [10]) was 0. Also, the EC50 in [1] (Homo sapiens, NCI-H295R) was more than 10 µM. In series [2] (setting [10]), the “Cortisol as an indicator to determine the presence of inhibition” value amounted to 0. Besides, the EC50 in [2] (Homo sapiens, NCI-H295R) is more than 10 µM. Moreover, the “recovery time of the test animals' righting reflex” value in series [7] is on record as 5.28 min. Further, in series [8], the Onset time lay within 3 to 4 min; the “Recovery time after stopping infusion” value lay in the range of 11 to 13 min; the “Types and incidence of adverse reactions” value is reported as “Convulsions (1/6), Tremor (4/6)”. Further, the “recovery time of the test animals' righting reflex” value in series [9] came out at 317 s.

As a reminder, the EC50 is the concentration needed to bring the measured effect to its halfway point. By ED50 is commonly meant the midpoint of the dose-response relation. Low readings indicate an effect at a small dose, high ones a need for a large dose.
